Reference: ChEMBL document CHEMBL1201862, “PubChem BioAssay data set” (2004)
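In this assay, cells in 96-well plates receive the compound at five concentrations for 48 hours. Endpoints are linearly interpolated between the surrounding concentrations. GI50 is the concentration that inhibits growth by half.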 The source made the active and inactive calls. Rule as the data show it: active = GI50 up to about 1.1 µM and inactive = higher.

Tests used:
Experiment in all cases: inhibition of tumour cell growth, NCI panel, 48 h
786-0 = test system: 786-0
A549 = test system: A549
ACHN = test system: ACHN
CCRF-CEM = test system: CCRF-CEM
COLO 205 = test system: COLO 205
DMS-273 = test system: DMS-273
EKVX = test system: EKVX
HCC 2998 = test system: HCC 2998
HCT-116 = test system: HCT-116
HCT-15 = test system: HCT-15
HL-60 = test system: HL-60
HOP-18 = test system: HOP-18
HOP-62 = test system: HOP-62
HOP-92 = test system: HOP-92
HT-29 = test system: HT-29
K562 = test system: K562
KM-20L2 = test system: KM-20L2
LXFL 529 = test system: LXFL 529
M19-MEL = test system: M19-MEL
MOLT-4 = test system: MOLT-4
Malme-3M = test system: Malme-3M
NCI-H226 = test system: NCI-H226
NCI-H23 = test system: NCI-H23
NCI-H460 = test system: NCI-H460
OVCAR-3 = test system: OVCAR-3
OVCAR-5 = test system: OVCAR-5
OVCAR-8 = test system: OVCAR-8
RPMI-8226 = test system: RPMI-8226
RXF 393 = test system: RXF 393
RXF 631 = test system: RXF 631
SF-268 = test system: SF-268
SF-295 = test system: SF-295
SF-539 = test system: SF-539
SK-MEL-28 = test system: SK-MEL-28
SK-MEL-2 = test system: SK-MEL-2
SN12C = test system: SN12C
SNB-19 = test system: SNB-19
SNB-78 = test system: SNB-78
SR = test system: SR
SW-620 = test system: SW-620
TK-10 = test system: TK-10
U-251 = test system: U-251
UACC-257 = test system: UACC-257
UO-31 = test system: UO-31
XF498 = test system: XF498
DLD-1 = test system: DLD-1
DMS-114 = test system: DMS-114
IGROV-1 = test system: IGROV-1
KM12 = test system: KM12
LOX IMVI = test system: LOX IMVI
M14 = test system: M14
NCI-H522 = test system: NCI-H522
OVCAR-4 = test system: OVCAR-4
SK-MEL-5 = test system: SK-MEL-5
SK-OV-3 = test system: SK-OV-3
SNB-75 = test system: SNB-75
UACC-62 = test system: UACC-62
CAKI-1 = test system: CAKI-1

## Clc1ccc(CNc2nc3ccccc3nc2-c2cccs2)c(Cl)c1
786-0
  GI50: > 100 µM (inactive)
A549
  GI50: 97.3 µM (inactive)
ACHN
  GI50: 75.2 µM (inactive)
CCRF-CEM
  GI50: 98.9 µM (inactive)
COLO 205
  GI50: 50 µM (inactive)
DMS-273
  GI50: 86.7 µM (inactive)
EKVX
  GI50: > 100 µM (inactive)
HCC 2998
  GI50: 43.5 µM (inactive)
HCT-116
  GI50: 49 µM (inactive)
HCT-15
  GI50: 38.1 µM
HL-60
  GI50: 21.9 µM (inactive)
HOP-18
  GI50: > 100 µM (inactive)
HOP-62
  GI50: > 100 µM (inactive)
HOP-92
  GI50: 13.1 µM (inactive)
HT-29
  GI50: 61 µM (inactive)
K562
  GI50: > 100 µM (inactive)
KM-20L2
  GI50: 49.3 µM (inactive)
LXFL 529
  GI50: > 100 µM (inactive)
M19-MEL
  GI50: 66.8 µM (inactive)
MOLT-4
  GI50: 27.9 µM (inactive)
Malme-3M
  GI50: > 100 µM (inactive)
NCI-H226
  GI50: > 100 µM (inactive)
NCI-H23
  GI50: 68.5 µM (inactive)
NCI-H460
  GI50: > 100 µM (inactive)
OVCAR-3
  GI50: > 100 µM (inactive)
OVCAR-5
  GI50: > 100 µM (inactive)
OVCAR-8
  GI50: > 100 µM (inactive)
RPMI-8226
  GI50: 56.1 µM (inactive)
RXF 393
  GI50: 73.8 µM (inactive)
RXF 631
  GI50: 67.3 µM (inactive)
SF-268
  GI50: > 100 µM (inactive)
SF-295
  GI50: > 100 µM (inactive)
SF-539
  GI50: > 100 µM (inactive)
SK-MEL-28
  GI50: > 100 µM (inactive)
SK-MEL-2
  GI50: > 100 µM (inactive)
SN12C
  GI50: > 100 µM (inactive)
SNB-19
  GI50: > 100 µM (inactive)
SNB-78
  GI50: > 100 µM (inactive)
SR
  GI50: 31.2 µM (inactive)
SW-620
  GI50: > 100 µM (inactive)
TK-10
  GI50: > 100 µM (inactive)
U-251
  GI50: 89.3 µM (inactive)
UACC-257
  GI50: > 100 µM (inactive)
UO-31
  GI50: > 100 µM (inactive)
XF498
  GI50: 26.7 µM (inactive)

## O=C(NCc1ccc2ccc3cccnc3c2n1)c1ccc[n+](Cc2ccccc2)c1
786-0
  GI50: > 100 µM (inactive)
A549
  GI50: > 100 µM (inactive)
ACHN
  GI50: > 100 µM (inactive)
CCRF-CEM
  GI50: > 100 µM (inactive)
COLO 205
  GI50: > 100 µM (inactive)
DLD-1
  GI50: > 100 µM (inactive)
DMS-114
  GI50: 36.8 µM (inactive)
DMS-273
  GI50: > 100 µM (inactive)
EKVX
  GI50: > 100 µM (inactive)
HCC 2998
  GI50: > 100 µM (inactive)
HCT-116
  GI50: > 100 µM (inactive)
HCT-15
  GI50: > 100 µM
HL-60
  GI50: > 100 µM (inactive)
HOP-18
  GI50: > 100 µM (inactive)
HOP-62
  GI50: > 100 µM (inactive)
HOP-92
  GI50: 37.7 µM (inactive)
HT-29
  GI50: 98.6 µM (inactive)
IGROV-1
  GI50: > 100 µM (inactive)
K562
  GI50: 83.8 µM (inactive)
KM-20L2
  GI50: > 100 µM (inactive)
KM12
  GI50: 91.4 µM (inactive)
LOX IMVI
  GI50: > 100 µM (inactive)
LXFL 529
  GI50: 67.6 µM (inactive)
M14
  GI50: > 100 µM (inactive)
M19-MEL
  GI50: 60.8 µM (inactive)
MOLT-4
  GI50: > 100 µM (inactive)
Malme-3M
  GI50: 75.2 µM (inactive)
NCI-H226
  GI50: > 100 µM (inactive)
NCI-H23
  GI50: > 100 µM (inactive)
NCI-H460
  GI50: > 100 µM (inactive)
NCI-H522
  GI50: > 100 µM (inactive)
OVCAR-3
  GI50: 55.6 µM (inactive)
OVCAR-4
  GI50: > 100 µM (inactive)
OVCAR-5
  GI50: > 100 µM (inactive)
OVCAR-8
  GI50: > 100 µM (inactive)
RPMI-8226
  GI50: 54.8 µM (inactive)
RXF 393
  GI50: > 100 µM (inactive)
RXF 631
  GI50: > 100 µM (inactive)
SF-268
  GI50: > 100 µM (inactive)
SF-295
  GI50: > 100 µM (inactive)
SF-539
  GI50: > 100 µM (inactive)
SK-MEL-28
  GI50: > 100 µM (inactive)
SK-MEL-2
  GI50: > 100 µM (inactive)
SK-MEL-5
  GI50: 74 µM (inactive)
SK-OV-3
  GI50: > 100 µM (inactive)
SN12C
  GI50: > 100 µM (inactive)
SNB-19
  GI50: > 100 µM (inactive)
SNB-75
  GI50: > 100 µM (inactive)
SR
  GI50: > 100 µM (inactive)
SW-620
  GI50: > 100 µM (inactive)
TK-10
  GI50: > 100 µM (inactive)
U-251
  GI50: > 100 µM (inactive)
UACC-257
  GI50: > 100 µM (inactive)
UACC-62
  GI50: > 100 µM (inactive)
UO-31
  GI50: > 100 µM (inactive)
XF498
  GI50: > 100 µM (inactive)

## COC(=O)C1=C(C(=O)OC)C2(C)OC1C(=O)C21CC1 (centres undefined)
786-0
  GI50: 38.7 µM (inactive)
A549
  GI50: > 100 µM (inactive)
ACHN
  GI50: 19.3 µM (inactive)
CAKI-1
  GI50: 18.6 µM (inactive)
CCRF-CEM
  GI50: 16.9 µM (inactive)
COLO 205
  GI50: 24.1 µM (inactive)
DLD-1
  GI50: 19.1 µM (inactive)
DMS-114
  GI50: 20.4 µM (inactive)
DMS-273
  GI50: 17.7 µM (inactive)
EKVX
  GI50: 39.7 µM (inactive)
HCC 2998
  GI50: 25.5 µM (inactive)
HCT-116
  GI50: 19.8 µM (inactive)
HCT-15
  GI50: 19.7 µM
HL-60
  GI50: 16.7 µM (inactive)
HOP-62
  GI50: > 100 µM (inactive)
HT-29
  GI50: 18.1 µM (inactive)
IGROV-1
  GI50: 23.2 µM (inactive)
K562
  GI50: 19.8 µM (inactive)
KM-20L2
  GI50: 23.7 µM (inactive)
KM12
  GI50: 30.5 µM (inactive)
LOX IMVI
  GI50: 18.8 µM (inactive)
LXFL 529
  GI50: 19.5 µM (inactive)
M14
  GI50: 15.3 µM (inactive)
M19-MEL
  GI50: 71 µM (inactive)
MOLT-4
  GI50: 19.5 µM (inactive)
Malme-3M
  GI50: 23.9 µM (inactive)
NCI-H226
  GI50: > 100 µM (inactive)
NCI-H23
  GI50: 22 µM (inactive)
NCI-H460
  GI50: 24.9 µM (inactive)
NCI-H522
  GI50: 11.2 µM (inactive)
OVCAR-3
  GI50: 22.1 µM (inactive)
OVCAR-4
  GI50: 10.6 µM (inactive)
OVCAR-5
  GI50: > 100 µM (inactive)
OVCAR-8
  GI50: 24 µM (inactive)
RPMI-8226
  GI50: 16.9 µM (inactive)
RXF 393
  GI50: 16.8 µM (inactive)
RXF 631
  GI50: 17.1 µM (inactive)
SF-268
  GI50: 54.5 µM (inactive)
SF-295
  GI50: 44 µM (inactive)
SF-539
  GI50: 20.7 µM (inactive)
SK-MEL-2
  GI50: > 100 µM (inactive)
SK-MEL-5
  GI50: > 100 µM (inactive)
SK-OV-3
  GI50: > 100 µM (inactive)
SN12C
  GI50: 22.9 µM (inactive)
SNB-19
  GI50: > 100 µM (inactive)
SNB-75
  GI50: 28.9 µM (inactive)
SR
  GI50: 19 µM (inactive)
SW-620
  GI50: 19.5 µM (inactive)
TK-10
  GI50: > 10 µM (inactive)
U-251
  GI50: > 100 µM (inactive)
UACC-257
  GI50: 57.1 µM (inactive)
UO-31
  GI50: 79.6 µM (inactive)
XF498
  GI50: 13.6 µM (inactive)
